System: Phytophthora citrophthora
Assay: Example B3: action on phytopathogenic soil fungi, growth on agar in Petri dishes
Type: cell-based
Settings: 120 h, 30 ppm, agar medium, 22° C., 5 days, read-out: inhibition of the development of the fungus

| SMILES | inhibition at 30 ppm [%] |
| --- | --- |
| COc1ccc(-c2c(C(=O)N(C)C)sc3ccccc23)cc1OC [Compound 155] | ≥ 80 |
| COc1ccc(-c2cc(-c3ccccc3)nc(C)c2C(=O)N2CCOCC2)cc1OC [Compound 505, N-[4-(3,4-dimethoxyphenyl)-2-methyl-6-phenylnicotinoyl]morpholine] | ≥ 80 |
| COc1ccc(-c2nc(-c3ccc(Br)cc3)ccc2C(=O)N2CCOCC2)cc1OC [Compound 385] | ≥ 80 |
| COc1ccc(-c2c(C(=O)N3CCOCC3)cc(-c3ccc(Cl)cc3)n2C)cc1OC [Compound 619] | ≥ 80 |
| COc1ccc(-c2cc(-c3ccc(C)cc3)ccc2C(=O)N(C)CCO)cc1OC [Compound 216] | ≥ 80 |
| COc1ccc(-c2nc(Sc3ccc(F)cc3)ncc2C(=O)N2CCOCC2)cc1OC [Compound 449] | ≥ 80 |
| COc1ccc(-c2c(C(=O)N3CCOCC3)sc3ccc(Cl)cc23)cc1OC [Compound 113] | ≥ 80 |
| COc1ccc(-c2c(C(=O)N3CCOCC3)sc3cccc(F)c23)cc1OC [Compound 129] | ≥ 80 |
| COc1ccc(-c2nc(-c3ccccc3)ccc2C(=O)N(C)CCOC(C)=O)cc1OC [Compound 396] | ≥ 80 |
| CCN(C)C(=O)c1ccc(-c2ccc(F)cc2)nc1-c1ccc(OC)c(OC)c1 [Compound 350] | ≥ 80 |
| COc1ccc(-c2nc(Oc3ccc(Cl)cc3)ncc2C(=O)N2CCOCC2)cc1OC [Compound 437] | ≥ 80 |
| COc1ccc(-c2nc(-c3ccco3)ccc2C(=O)N2CCOCC2)cc1OC [Compound 3116] | ≥ 80 |
| COc1ccc(-c2ccc(C(=O)N3CCOCC3)c(-c3ccc(OC)c(OC)c3)c2)cc1OC [Compound 234] | ≥ 80 |
| COc1ccc(-c2c(C(=O)N3CCOCC3)sc3ccc(-c4ccccc4)cc23)cc1OC [Compound 135] | ≥ 80 |
| COc1ccc(-c2nc(Sc3ccc(Cl)c(Cl)c3)ncc2C(=O)N2CCOCC2)cc1OC [Compound 450] | ≥ 80 |
| CCN(C)C(=O)c1ccc(-c2ccc(Cl)cc2)nc1-c1ccc(OC)c(OC)c1 [Compound 347] | ≥ 80 |
| CCN(C)C(=O)c1cnc(-c2cccc(C(F)(F)F)c2)nc1-c1ccc(OC)c(OC)c1 [Compound 428] | ≥ 80 |
| CCN(CC)C(=O)c1ccc(-c2ccccc2)nc1-c1ccc(OC)c(OC)c1 [Compound 388] | ≥ 80 |
| COc1ccc2c(c1)CC(C(=O)N1CCOCC1)=C2c1ccc(OC)c(OC)c1 [Compound 111, 2-Morpholinocarbonyl-3-(3,,4-dimethoxyphenyl)-6-mehoxyindene] | ≥ 80 |
| COc1ccc(-c2nc(-c3ccc(Cl)cc3)ccc2C(=O)N(C)CC#N)cc1OC [Compound 363] | ≥ 80 |
| COc1ccc(-c2nc(-c3ccc4ccccc4c3)ccc2C(=O)N2CCOCC2)cc1OC [Compound 3115] | ≥ 80 |
| COc1ccc(-c2cc(-c3ccc(C)cc3)ccc2C(=O)N(C)C)cc1OC [Compound 217] | ≥ 80 |
| COc1ccc(-c2nc(-c3ccc(Cl)cc3)ccc2C(=O)N2CCCC2)cc1OC [Compound 373] | ≥ 80 |
| O=C(c1ccc(-c2ccc(F)cc2)cc1-c1ccc2c(c1)OCO2)N1CCOCC1 [Compound 229] | ≥ 80 |
| COc1ccc(-c2cc(C=C(C)C)ccc2C(=O)N2CCOCC2)cc1OC [Compound 235] | ≥ 80 |

| SMILES | inhibition at 30 ppm [%] |
| --- | --- |
| COc1ccc(-c2nc(-c3ccccc3)ncc2C(=O)N2CCOCC2)cc1OC [Compound 414] | ≥ 80 |
| COc1ccc(-c2cc(-c3ccc(F)cc3)ccc2C(=O)N2CCOCC2)cc1OC [Compound 201, 2-(3,4-Dimethoxyphenyl)-4-(4-fluorophenyl)-1-morpholinocarbonylbenzene] | ≥ 80 |
| COc1ccc(-c2c(C(=O)N3CCOCC3)sc3ccc(-c4ccsc4)cc23)cc1OC [Compound 134] | ≥ 80 |
| COc1ccc(-c2c(C(=O)N3CCOCC3)sc3ccc(C(F)(F)F)cc23)cc1OC [Compound 133] | ≥ 80 |
| COc1ccc(-c2c(C(=O)N3CCCC(O)C3)sc3ccccc23)cc1OC (centres unmarked) [Compound 164] | ≥ 80 |
| COc1ccc(-c2nc(-c3ccccc3)ccc2C(=O)N2CCOCC2)cc1OC [Compound 301, N-[2-(3,4-dimathoxyphenyl)-6-phenylnicotinoyl]morpholine] | ≥ 80 |
| COc1ccc(-c2nc(-c3cccs3)ccc2C(=O)N2CCOCC2)cc1OC [Compound 3113] | ≥ 80 |
| COCCN(C)C(=O)c1sc2ccccc2c1-c1ccc(OC)c(OC)c1 [Compound 158] | ≥ 80 |
| CCN(C)C(=O)c1ccc(-c2ccc(F)cc2)cc1-c1ccc2c(c1)OCO2 [Compound 228] | ≥ 80 |
| COc1ccc(-c2c(C(=O)N3CCOCC3)sc3c(C)cccc23)cc1OC [Compound 127] | ≥ 80 |
| COc1ccc(-c2cc(-c3ccc4c(c3)OCO4)ccc2C(=O)N2CCOCC2)cc1OC [Compound 239] | ≥ 80 |
| COc1ccc(-c2nc(-c3ccc(C4CC4(Cl)Cl)cc3)ccc2C(=O)N2CCOCC2)cc1OC (centres unmarked) [Compound 355] | ≥ 80 |
| COCCN(C)C(=O)c1ccc(-c2ccc(Cl)cc2)nc1-c1ccc(OC)c(OC)c1 [Compound 379] | ≥ 80 |
| COc1ccc(-c2nc(Oc3ccc(Cl)c(C)c3)ncc2C(=O)N2CCOCC2)cc1OC [Compound 441] | ≥ 80 |
| C=C(C)c1ccc(C(=O)N2CCOCC2)c(-c2ccc(OC)c(OC)c2)c1 [Compound 236] | ≥ 80 |
| COc1ccc(-c2c(C(=O)N3CCOCC3)sc3ccc(Br)cc23)cc1OC [Compound 114] | ≥ 80 |
| CCN(CC)C(=O)c1cnc(-c2cccc(C(F)(F)F)c2)nc1-c1ccc(OC)c(OC)c1 [Compound 429] | ≥ 80 |
| COCCN(C)C(=O)c1cnc(-c2ccccc2)nc1-c1ccc(OC)c(OC)c1 [Compound 416] | ≥ 80 |
| C=CCN(C)C(=O)c1ccc(-c2ccccc2)nc1-c1ccc(OC)c(OC)c1 [Compound 359] | ≥ 80 |
| COCCN(C)C(=O)c1ccc(-c2ccc(Br)cc2)nc1-c1ccc(OC)c(OC)c1 [Compound 393] | ≥ 80 |
| COc1ccc(-c2c(C(=O)N3CCOCC3)sc3cccc(Cl)c23)cc1OC [Compound 128] | ≥ 80 |
| COc1ccc(C2=C(C(=O)N3CCOCC3)Cc3cc(OC)c(OC)cc32)cc1OC [Compound 112, 2-Morpholinocarbonyl-3-(3,4-dimethoxyphenyl)-5,6-methoxyindene] | ≥ 80 |
| COc1ccc(-c2cc(-c3ccc(C)cc3)ccc2C(=O)N2CCOCC2)cc1OC [Compound 203] | ≥ 80 |
| COc1ccc(-c2nc(SCc3ccccc3)ncc2C(=O)N2CCOCC2)cc1OC [Compound 434] | ≥ 80 |
| COc1ccc(-c2nc(Oc3ccccc3C)ncc2C(=O)N2CCOCC2)cc1OC [Compound 440] | ≥ 80 |

| SMILES | inhibition at 30 ppm [%] |
| --- | --- |
| CCN(CC)C(=O)c1ccc(Br)cc1-c1ccc(OC)c(OC)c1 [Compound 205] | ≥ 80 |
| COc1ccc(-c2c(C(=O)N3CCOCC3)sc3c(-c4ccccc4)cccc23)cc1OC [Compound 126] | ≥ 80 |
| COc1ccc(-c2nc(Sc3ccc(Cl)cc3)ncc2C(=O)N2CCOCC2)cc1OC [Compound 436] | ≥ 80 |
| COc1ccc(-c2nc(-c3ccc(F)cc3)ccc2C(=O)N2CCOCC2)cc1OC [Compound 349] | ≥ 80 |
| COc1ccc(-c2cc(-c3ccc(Cl)cc3)ccc2C(=O)N2CCOCC2)cc1OC [Compound 237] | ≥ 80 |
| CCN(C)C(=O)c1ccc(Br)cc1-c1ccc(OC)c(OC)c1 [Compound 206] | ≥ 80 |
| CCN(C)C(=O)c1c(-c2ccc(OC)c(OC)c2)cc(-c2ccccc2)nc1C [Compound 506] | ≥ 80 |
| C=C(C)c1ccc(C(=O)N(CC)CC)c(-c2ccc(OC)c(OC)c2)c1 [Compound 214] | ≥ 80 |
| COCCN(C)C(=O)c1ccc(-c2ccc(F)cc2)nc1-c1ccc(OC)c(OC)c1 [Compound 353] | ≥ 80 |
| COc1ccc(-c2nc(Oc3ccc(F)cc3)ncc2C(=O)N2CCOCC2)cc1OC [Compound 439] | ≥ 80 |
| COc1ccc(-c2nc(-c3cccc(C(F)(F)F)c3)ncc2C(=O)O)cc1OC [Compound 426] | ≥ 80 |
| COCCN(C)C(=O)c1ccc(Br)cc1-c1ccc(OC)c(OC)c1 [Compound 204] | ≥ 80 |
| COc1ccc(-c2c(C(=O)N3CCOCC3)oc3ccc([N+](=O)[O-])cc23)cc1OC [Compound 136] | ≥ 80 |
| COCCN(C)C(=O)c1ccc(Cl)cc1-c1ccc(OC)c(OC)c1 [Compound 210] | ≥ 80 |
| COc1ccc(-c2cc(-c3ccccc3)ccc2C(=O)N2CCOCC2)cc1OC [Compound 202] | ≥ 80 |
| COc1ccc(C2=C(C(=O)N3CCOCC3)Cc3cc(OC)c(OC)cc32)cc1 [Compound 149] | ≥ 80 |
| COc1ccc(-c2c(C(=O)N3CCOCC3)cc(-c3ccc(F)cc3)n2C)cc1OC [Compound 607, 5-(4-fluorophenyl)-2-(3,4-dimethoxyphenyl)-1-methyl-3-(morpholinocarbonyl)pyrrole] | ≥ 80 |
| COc1ccc(-c2c(C(=O)N3CCOCC3)sc3c(NC(=O)C(F)(F)F)cccc23)cc1OC [Compound 131] | ≥ 80 |
| COc1ccc(C2=C(C(=O)N3CCOCC3)C(O)c3ccccc32)cc1OC (centres unmarked) [Compound 110, 1-(3,4-Dimethoxyphenyl)-2-morpholinocarbonyl-3-hydroxyindene] | ≥ 80 |
| COc1ccc(-c2nc(-c3cccc(C(F)(F)F)c3)ncc2C(=O)N2CCOCC2)cc1OC [Compound 425] | ≥ 80 |
| COc1ccc(-c2nc(Oc3ccc(Br)cc3)ncc2C(=O)N2CCOCC2)cc1OC [Compound 438] | ≥ 80 |
| COc1ccc(-c2c(C(=O)N3CCCCC3)sc3ccccc23)cc1OC [Compound 153] | ≥ 80 |
| COc1ccc(-c2nc(-c3ccccc3)ccc2C(=O)N(C)C(C)C)cc1OC [Compound 360] | ≥ 80 |
| CCN(C)C(=O)c1cnc(-c2ccccc2)nc1-c1ccc(OC)c(OC)c1 [Compound 415] | ≥ 80 |

Source: patent US5475132A, “Antifungal agents based on amides containing a phenyl group” (Rhone-Poulenc Agrochimie, priority 1988, dated 1995)
